Experiments:
[1] = test system: full-thickness skin excisional wounds; test: Skin wound healing in mice, histology with Masson's trichrome; type: in vivo, C57L/B6 mice; conditions: for residual epithelial defects, Masson's trichrome sections: day 7 after trauma, control ointment 43.5±6.5%; for area of GT (granulation tissue), folds over the control group / area of HE tissue, folds over that of the control group / residual epithelial defect, Masson's trichrome sections: day 4 after trauma; for area of GT (granulation tissue), folds over the control group / area of HE tissue, folds over that of the control group: edge of the wound; for residual epithelial defect, Masson's trichrome sections: sections of the middle of the wounds, control 63.8±5.8%
Text: FIGS. 7A to 7E provide quantification of wound healing at day 4. […] Arrowheads (▾) and arrows (↓) denote initial wound margins and the foremost tips of the hyperproliferative epithelium (HE; red color), respectively. Data are representative of 10-16 wounds (2 wounds per mouse) in each group. *P<0.02 versus control wound. FIG. 7B is a histogram illustrating the residual epithelial defect (%) in mice from each treatment group; only sections of the middle of the wounds were used for quantification. Data are shown as mean±SE. FIG. 7C provides representative photographs of wound edge. GT: granulation tissue (blue color); Es: eschar (deep-red). […] FIGS. 7D and 7E are histograms providing quantifications of the areas of HE and GT using Adobe Photoshop CS3 10.0. *P<0.02 versus control wound.
FIGS. 8A and 8B provide quantification of wound healing at day 7. […] Arrowheads (▾) and arrows (↓) denote initial wound margins and the foremost tips of the hyperproliferative epithelium, respectively. FIG. 8B is a histogram illustrating the residual epithelial defect (%) in mice from each treatment group; only sections of the middle of the wounds were used for quantification. Data are shown as mean±SE. *P<0.05 versus control wound.
To perform full-thickness skin excision, 8- to 10-week-old C57L/B6 mice were respectively anesthetized by an intraperitoneal injection of a mixture of zoletil (6 mg/kg) and xylazine (3 mg/kg). Two full-thickness skin excisional wounds, 4 mm in diameter were made on either side of the dorsal midline using Sklar Tru-Punch disposable biopsy punch (Sklar, West Chester, Pa., USA). In each treatment group (n=6), the skin wound was treated with 25 μl skin ointment (containing 50 μM synthetic peptide and 0.006 μl DMSO vehicle) once daily after the skin scraping. In the control group (n=6), skin wound was treated with 25 μl of skin ointment with equal concentration of DMSO. Each gram of the above skin ointment contains 5 mg neomycin sulfate and 12.5 mg Bacitracin Zinc. Wounds were left uncovered and harvested 4 and 7 days after injury. Mice were housed individually during the healing period.
For histological analysis the complete wounds including 2 mm of the epithelial margins was isolated, bisected, fixed overnight in 4% PFA in PBS, and embedded in paraffin. Sections (5 μm) from the middle of the wound were stained using the Masson's trichrome procedure as described by the manufacturer, in which the epithelium was stained red and connective tissue was stained blue. Photographs were taken using a Leica DC 500 camera (Leica Microsystems).
To further confirm the efficacy of 29-mer and 20-mer on skin wound repair, skin sections from day 4 after trauma were stained using the Masson's trichrome. […] The residual epithelial defect of 29-mer and 20-mer-treated groups were 52.7±6.2% and 49.7±5.6%, respectively; as compared to control animals of 63.8±5.8% (FIG. 7B). In addition, 29-mer treatment elevated the thicknesses of hyper-proliferative epithelial (HE) tissue and granulation tissue (GT) around the edge of the wound (FIG. 7C).
Masson's trichrome was used to stain skin sections obtained from day 7 after trauma for the measurement of the wound closure.

[2] = test system: hair follicle stem cells (HFSCs); test: In vitro HFSC proliferation, BrdU pulse-labeling with Lgr6 immunostaining; type: cell-based, Human; conditions: 50 nM peptide or 4.5 nM PEDF in medium; BrdU 2 hours; control 31.9±5.6%
Experimental: FIG. 5A provides immunofluorescence microscopy photographs and FIG. 5B is a histogram, and together, they illustrate the in vitro proliferation of HFSCs from treatment groups according to one example of the present disclosure. HFSC proliferation was determined by BrdU labeling for 2 hours. HFSCs (Lgr6, green) and BrdU (red) were detected by immunofluorescence microscopy (original magnification, ×1000). Twenty randomly selected fields in each group were photographed, and the percentage of BrdU and Lgr6-double positive cells (pale pink) per total Lgr6-positive cells was calculated. *P<0.001 versus untreated cells.
Human hair follicles were collected from hairs of healthy donors. The follicles were dissected with tweezers under microscope and most of adipose and connective tissue was removed. The bulge region of hair follicle under the sebaceous gland was cut and then bulge fragments (including central isthmus) were transferred into a 35-mm dish containing 1 ml of collagenase A (1 mg/ml; Roche) and incubated for 1.5 hours at 37° C. to digest the collagen capsule. Subsequently, the bulge fragments were transferred into a fresh cell culture dish containing dispase II (2.4 U/ml)/0.05% trypsin and further incubated for 1.5 hours at 37° C. to obtain a single cell suspension.
After mechanical dissection and enzymatic digestion, the suspended bulge cells isolated from five bulge fragments were seeded into a well of 12-well culture plate and incubated with the basal medium for 5 days to facilitate cell adhesion. The basal medium contains four parts Gibco calcium-free Dulbecco's modified Eagle's medium (DMEM) and one part Ham's F12 medium (calcium concentration reached about 0.25 mM) and supplemented with 10% FBS, 10 ng/ml human epidermal growth factor, 500 mg/I L-glutamine, 0.2% bovine pituitary extract, […] hydrocortisone, 1% ITSE as well as antibiotic-antimicotic solutions. Cultivation method was similar to that of Blazejewska et al. (Stem Cells 2009; 27:642). After 5 days of incubation, cells were cultured in the serum-free basal medium or basal medium containing 4.5 nM PEDF, 50 nM 29-mer, or 50 nM 20-mer, until near confluence (about 2 weeks; passage 0). The medium was changed every 2 to 3 days. The bulge cells were co-cultured with 3T3 fibroblast feeder cells. For passage, near-confluent cells were harvested by enzymatic treatment (i.e., 0.25% trypsin) for 5 min at 37° C. Approximately 1×10^5 human bulge cells were transferred to a new dish and allowed to grow for 14 days to near confluence (passage 1). […]

Sequence | residual epithelial defects, Masson's trichrome sections [1] | percentage of BrdU and Lgr6-double positive cells per total Lgr6-positive cells [2] | area of GT (granulation tissue), folds over the control group [1] | area of HE tissue, folds over that of the control group [1] | residual epithelial defect, Masson's trichrome sections [1]
SLGAEHRTESVIHRALYYDLITNPDIHST [Mo 29-mer, synthetic peptide derived from mouse PEDF] | 17.2±7.3% | – | – | – | –
EQRTESIIHRALYYDLIS [18-mer] | – | 30.1±6.3% | – | – | –
SLGAEQRTESIIHRALYYDLISSPDIHGT [29-mer, short synthetic PEDF peptide derived from the 39-mer] | 17.9±3.3% | 86.2±3.9% | 1.45±0.23 folds | 1.41±0.25 folds | 52.7±6.2%
SLGAEQRTESIIHRALYYDL [20-mer, synthetic peptide identical to residues 11-30 of the 39-mer] | 20.8±6.1% | 79.5±2.6% | 1.37±0.17 folds | 1.32±0.21 folds | 49.7±5.6%

From patent US9617311B2, “Use of PEDF-derived polypeptides for promoting stem cells proliferation and wound healing” (Mackay Memorial Hospital, priority 2011, dated 2017)
